From patent US12527788B2, “Defining RNA-small molecule affinity landscapes enables design of a small molecule inhibitor of an oncogenic non-coding RNA” (University of Florida Research Foundation, Incorporated, priority 2017, dated 2026)

Experiments:
[1] = molecular target: selected RNA motifs; test: In solution fluorescence-based binding affinity measurement; settings: read-out: Average Kd of Selected RNA Binders
Procedure: Bound RNA motifs for each compound were harvested from the array surface, amplified, and identified by using high throughput sequencing (RNA-seq). Highly abundant RNAs in the sequencing data were then subjected to binding measurements. Typically, those RNAs that were highly enriched bound to the small molecules with affinities (Kds) that ranged from 1 to 10 μM (FIG. 2 and Table 1) while binding to the starting libraries was not saturable. These affinities are promising for binding RNA, as it has been difficult to acquire low micromolar affinity with compounds of this low molecular weight. In fact, RNAs that have undergone Darwinian evolution to bind small molecules, namely riboswitches, often bind their cognate ligand at […] concentrations;^30-33 bioactive compounds that mimic riboswitch ligands bind with similar affinities.^30,34
(§1) Binding Affinity Measurements: An in solution, fluorescence-based assay was used to determine binding affinities by monitoring the change in fluorescence intensity of 1-FL (or 2-FL/3-FL/4-FL) as a function of RNA concentration as described previously.^18 Briefly, the RNA of interest was folded in 1× Folding Buffer (8 mM Na2HPO4, pH 7.0, 185 mM NaCl and 1 mM EDTA) by heating at 60° C. for 5 min followed by slowly cooling to room temperature on the bench top. Then, the FL-conjugated compound was added into the RNA solution to a final concentration of 100 nM. Serial dilutions were then completed using 1× Folding Buffer supplemented with 100 nM FL-conjugated compound. The solutions were incubated at room temperature for 30 min and then transferred to a well of a black 384-well plate. Fluorescence intensity was measured using a Bio-Tek FL×800 plate reader with an excitation wavelength of 485/20 nm and an emission wavelength of 528/20 nm. The change in fluorescence intensity as a function of the concentration of RNA was fit to equation 3:^9 I=I0+0.5 Δε{([FL]0+[RNA]0 +Kd)−(([FL]0+[RNA]0+Kd)^2−4[FL]0[RNA]0)^1/2} (3) where I is the observed fluorescence intensity; I0 is the fluorescence intensity in the absence of RNA; Δε is the difference between the fluorescence intensity in the absence of RNA and in the presence of infinite RNA concentration; [FL]0 is the concentration of compound; [RNA]0 is the concentration of the selected RNA; and Kd is the dissociation constant.

[2] = molecular target: AT-rich DNA hairpin; test: as above
Text: It has been difficult to identify compounds that are heterocyclic in nature that selectively recognize RNA over DNA.^5 Thus, to further gain insight into the selectivity of our RNA motif-small molecule interactions, we compared the measured affinities for selected RNA motifs to the affinities of the ligands for an AT-rich DNA hairpin, a common target of small molecules similar to those shown in FIG. 1. […] This alteration reduces DNA affinity because key stacking and hydrogen bonding interactions are not possible. […] Thus, the interactions selected via 2DCS are RNA-selective.
as §1

CN1CCN(c2ccc(-c3ccc4nc(-c5ccc(OCCCC(=O)NCCCN=[N+]=[N-])cc5)[nH]c4c3)cc2)CC1 [Compound 1]
Kd [1]: 16 ± 9 µM | Kd [2]: > 100 µM

Cc1cc(-c2nc3ccc(-c4ccc(N5CCN(C)CC5)cc4)cc3[nH]2)cc(C)c1OCCCC(=O)NCCCN=[N+]=[N-] [Compound 2]
Kd [1]: 7 ± 5 µM | Kd [2]: > 100 µM

CC(C)c1cc(-c2nc3ccc(-c4ccc(N5CCN(C)CC5)cc4)cc3[nH]2)cc(C(C)C)c1OCCCC(=O)NCCCN=[N+]=[N-] [Compound 3]
Kd [1]: 8 ± 4 µM | Kd [2]: > 100 µM
